Legend:
[1] = test system: Monocotyledonous and dicotyledonous test plants; test: Herbicidal action, application pre-emergence (Example B1); type: in vivo; set-up: key: 10=total damage to plant; 0=no damage to plant; details: 1000 g/ha, evaluated after 9 or 13 days; for AGSTE herbicidal action (damage score 0-10): Agrostis-tenius; for AMARE herbicidal action (damage score 0-10): Amaranthus retroflexus; for DIGSA herbicidal action (damage score 0-10): Digitaria sanguinalis; for POATR herbicidal action (damage score 0-10): Poa trivialis; for SETIT herbicidal action (damage score 0-10): Setaria italica
Summary of the method: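 Seeds sown in sterilised standard soil were sprayed one day after sowing (pre-emergence) with 1000 mg/l active ingredient in aqueous solution containing 10% DMSO. Plants were kept in a climatic chamber at 24/19° C. day/night after application. Damage was scored 0 (none) to 10 (total) after 9 or 13 days.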

Structure (SMILES) | melting point [°C] | AGSTE herbicidal action (damage score 0-10) [1] | AMARE herbicidal action (damage score 0-10) [1] | DIGSA herbicidal action (damage score 0-10) [1] | POATR herbicidal action (damage score 0-10) [1] | SETIT herbicidal action (damage score 0-10) [1]
Cc1nc(CS(=O)(=O)C2=NOC(C)(C)C2F)n(C)n1 (stereo not shown) [8.04, 3-[(1,3-dimethyl-1H-[1,2,4]-triazol-5-yl)-methanesulfonyl]-4-fluoro-5,5-dimethyl-4,5-dihydro-isoxazole] | 182 to 184 | – | – | – | – | –
Cn1nc(C(F)(F)F)c(CS(=O)(=O)C2=NOC(C)(C)C2Cl)c1OCC(F)(F)F (stereo not shown) [Compound No. 2.15, 4-chloro-5,5-dimethyl-3-[1-methyl-5-(2,2,2-trifluoro-ethoxy)-3-trifluoromethyl-1H-pyrazol-4-ylmethylsulfonyl]-4,5-dihydro-isoxazole] | 111 to 112 | 10 | 8 | 8 | 10 | 6
CC1(C)ON=C(S(=O)(=O)C(F)(F)c2c(F)cccc2F)C1F (stereo not shown) [Compound No. 1.18, 3-[(2,6-difluoro-phenyl)-difluoro-methanesulfonyl]-4-fluoro-5,5-dimethyl-4,5-dihydro-isoxazole] | 115 to 116 | 10 | 10 | 10 | 8 | 9
CC1(C)ON=C(SCc2cccnc2Cl)C1F (stereo not shown) [Compound No. 3.04] | – | 8 | 2 | 8 | 7 | –
CC1(C)ON=C(S(=O)(=O)C(F)(F)c2ccccc2OC(F)(F)F)C1F (stereo not shown) [Compound No. 1.12] | – | 10 | 9 | 9 | 0 | 8
Cn1nc(C(F)(F)F)c(Cl)c1CSC1=NOC(C)(C)C1F (stereo not shown) [Compound No. 6.05] | – | 10 | 0 | 5 | 4 | –
C=CCn1nc(CS(=O)(=O)C2=NOC(C)(C)C2F)c(C(F)(F)F)n1 (stereo not shown) [7.10] | – | 10 | 10 | 10 | 10 | –
COCCOc1c(CS(=O)(=O)C2=NOC(C)(C)C2F)c(C(F)(F)F)nn1C (stereo not shown) [2.59] | – | 10 | 10 | 10 | 10 | –
CC(C)n1nc(C[S+]([O-])C2=NOC(C)(C)C2F)c(C(F)(F)F)n1 (single isomer, unassigned) [7.26] | – | 9 | 0 | 5 | 6 | –
CCn1ncc(CS(=O)(=O)C2=NOC(C)(C)C2F)n1 (stereo not shown) [7.36] | – | 9 | 8 | 9 | 10 | –
C#CCn1cc(CS(=O)(=O)C2=NOC(C)(C)C2F)c(C(F)(F)F)n1 (stereo not shown) [2.50] | – | 10 | 10 | 10 | 10 | –
Cn1cc(C(F)(F)F)c(C[S+]([O-])C2=NOC(C)(C)C2F)n1 (mixture of isomers) [4.02] | – | 10 | 9 | 9 | 10 | 9
Cn1nc(C(F)(F)F)c(CSC2=NOC(C)(C)C2F)c1OCC(F)(F)F (stereo not shown) [Compound No. 2.07, 4-fluoro-5,5-dimethyl-3-[1-methyl-5-(2,2,2-trifluoro-ethoxy)-3-trifluoromethyl-1H-pyrazol-4-ylmethylsulfanyl]-4,5-dihydro-isoxazole] | 50 to 51 | – | – | – | – | –
Cn1nc(C(F)(F)F)c(Cl)c1CS(=O)(=O)C1=NOC(C)(C)C1F (stereo not shown) [6.07] | – | 10 | 7 | 9 | 10 | –
Cn1nc(OC(F)F)cc1CSC1=NOC(C)(C)C1F (stereo not shown) [Compound No. 6.08] | – | 9 | 3 | 8 | 9 | –
Cc1nn(C(C)C)nc1CS(=O)(=O)C1=NOC(C)(C)C1F (stereo not shown) [7.39] | – | 10 | 8 | 9 | 8 | –
Cn1nc(C(F)(F)F)cc1CS(=O)(=O)C1=NOC(C)(C)C1F (stereo not shown) [6.04] | – | 10 | 9 | 9 | 10 | –
Cn1nc(C(F)(F)F)c(C[S+]([O-])C2=NOC(C)(C)C2Cl)c1OCC(F)(F)F (stereo not shown) [Compound No. 2.14, 4-Chloro-5,5-dimethyl-3-[1-methyl-5-(2,2,2-trifluoro-ethoxy)-3-trifluoromethyl-1H-pyrazol-4-ylmethylsulfinyl]-4,5-dihydro-isoxazole] | – | 10 | 9 | 9 | 10 | 9
Cn1ncc(C[S+]([O-])C2=NOC(C)(C)C2F)n1 (mixture of isomers) [7.22] | – | 9 | 0 | 8 | 9 | –
CC1(C)ON=C([S+]([O-])Cc2c(F)cccc2F)C1F (single isomer, unassigned) [1.15] | – | 10 | 9 | 9 | 10 | 9
CC(Oc1c(CS(=O)(=O)C2=NOC(C)(C)C2F)c(C(F)(F)F)nn1C)C(F)(F)F (mixture of isomers) [2.37] | – | 10 | 8 | 9 | 10 | 9
Cn1cc(CS(=O)(=O)C2=NOC(C)(C)C2F)c(C(F)(F)F)n1 (stereo not shown) [2.34] | – | 10 | 10 | 10 | 10 | 9
CCn1cc(CS(=O)(=O)C2=NOC(C)(C)C2F)c(C(F)(F)F)n1 (stereo not shown) [2.47] | – | 10 | 10 | 9 | 10 | –
Cn1nc(OCC(F)(F)F)c(C[S+]([O-])C2=NOC(C)(C)C2F)c1C(F)(F)F (single isomer, unassigned) [2.43] | – | 0 | 8 | 9 | 10 | 8
Cn1nc(C(F)(F)F)c(CSC2=NOC(C)(C)C2F)c1F (stereo not shown) [Compound No. 2.54] | – | 10 | 9 | 6 | 10 | –
Cc1nn(C)nc1CS(=O)(=O)C1=NOC(C)(C)C1F (stereo not shown) [7.04] | – | 10 | 10 | 10 | 10 | 9
Cn1nc(C(F)(F)F)c(C[S+]([O-])C2=NOC(C)(C)C2F)c1OCC(F)(F)F (single isomer, unassigned) [2.10] | – | 10 | 8 | 10 | 10 | 9

Reference: patent US20090042726A1, “Novel Herbicides” (SYNGENTA LIMITED, priority 2005, published 2009)
